Data as given in patent publication US11026972B2, “Methods for generating macrophages with enhanced cancer phagocytosis” (Georgia State University Research Foundation, Inc., priority 2016, dated 2021).

How the values were obtained:
Format in all cases: cell-based, mouse
[1] = system: splenic macrophages, PEMs and BMDMs; experiment: Ex vivo macrophage phagocytosis toward RBCs and other self-cells after activation
Procedure, shortened: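 Mouse splenic or peritoneal macrophages (2 h adherent selection) or BMDMs (M-CSF ~10 ng/ml, 5-6 days) were co-incubated 30 min at 37 °C with CFSE-labelled RBCs (1:5-10) or other cells (1:1-2). Uptake was scored by fluorescence microscopy and/or FACS with anti-F4/80 or anti-CD11b macrophage labelling.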

PEMs [2] = experiment: Cell signaling inhibitors on LPS/cytokine- or PMA-induced PEM phagocytic activation toward RBCs; conditions: PMA treatment
Procedure: FIGS. 5A-5H include data related to our experiments on the role of Syk in phagocytic activation. […] PEMs were treated with LPS and cytokines in the presence of various inhibitors. After washing, inhibitor-free macrophages were tested for phagocytosis toward RBCs. […] PEMs treated with LPS and activating cytokines, or together with IL-10, were tested for total Syk and phosphorylated Syk (Syk^pY, specific at Y519/520). FIG. 5D describes PMA-induced macrophages phagocytosis toward RBCs. WT and SIRPα^−/− PEMs were treated with PMA (37° C., 30 min) before testing phagocytosis toward RBCs. FIG. 5E is a schematic depiction of PKC-Syk-mediated macrophage phagocytic activation toward self. […] Left: Inhibition of Syk by piceatannol and R406 prevented PMA-induced phagocytic activation. […] Error bars are ±SEM. ***P<0.001 vs. the respective controls. […] LPS-treated WT PEMs were further briefly treated with pervanadate before testing for phagocytosis toward RBCs. Error bars are ±SEM. ***P<0.001 vs. the respective controls. […] Data presented in each panel represent at least three independent experiments with n≥4, if applicable.
(§1) Ex vivo macrophage phagocytosis: Mouse spleens were harvested and minced in cold HBSS followed by passing through nylon meshes. The spleen cells in suspensions were collected by centrifugation followed by washing. After lysis of RBC, splenocytes were plated in cell culture dishes in DMEM with 10% FBS and cultured for 2 h followed by removal of non-adherent cells. The adherent cells, ˜70% being macrophages as determined by anti-F4/80 staining, were tested for phagocytosis. For phagocytosis of RBC or other tissue cells, targeted cells were labeled with CFSE prior to addition into the macrophage-containing wells. Macrophages and target cells, at a ratio of 1:5-10 for RBC or 1:1-2 for other cells, were co-incubated for 30 min at 37° C. followed by gently washing. Macrophage phagocytosis of target cells was then analyzed by fluorescence microscopy and/or by FACS. […] Alternatively, the freshly isolated splenocytes in suspension were incubated with CFSE-labeled RBC and other phagocytic targets for 30 min at 37° C. Macrophage phagocytosis was then determined by FACS after labeling macrophages with anti-F4/80. To test phagocytosis of apoptotic cells, B16 cells were irradiated by UV for 150 seconds at 50 J/m^2 strength. Apoptosis was analyzed at 2, 4, 6, 8 and 18 h post UV irradiation by labeling of the cells with anti-phosphatidylserine (PS) antibody (data not shown) or FITC-conjugated annexin V (data not shown). Cells that were confirmed to be apoptotic were trypsinized, labeled with CFSE, and then co-incubated with macrophages for 30 min at 37° C. After gentle washing, phagocytosis was analyzed by fluorescence microscopy and/or FACS. To test phagocytosis of bacteria and the fungal product zymosan, AlexaFluor-conjugated E.coli strain […] (2 μl suspension, ˜2 μg) or zymosan bioparticles (1 μl suspension, ˜2 μg) (both from Invitrogen) were incubated with macrophages for 30 min followed by washing and analyses. Similar procedures were performed to test phagocytosis of macrophages from various sources. To obtain peritoneal macrophages, peritonea of mice were lavaged by sterile PBS followed by centrifugation to collect cells. Cells suspended in DMEM with 10% FBS were then plated in cell culture dishes and incubated for 2 h at 37° C. followed by removal of non-adherent cells. To produce bone marrow-derived macrophages, freshly isolated bone marrow cells were culture in macrophage colony-stimulating factor (MCSF, ˜10 ng/ml)-containing MEM with 10% FBS for five-six days and macrophage differentiation was confirmed by anti-F4/80 staining.

SIRPα = SIRPα immunoprecipitation and WB detection of SIRPα ITIM phosphorylation and SHP-1 association; conditions: PMA treatment
Procedure: FIGS. 4A-4E include data related to our experiments on macrophage phagocytic plasticity. FIG. 4A is a panel of illustrative line graphs showing that IL-10 inhibits macrophage phagocytosis toward “self.” PEMs were treated with LPS and activating cytokines along with various concentrations of IL-10 before testing their ability to phagocytose RBCs. FIG. 4B illustrates the phagocytic plasticity of WT red pulp macrophages. […] Treatments of cultured macrophages with LPS and IL-17 re-elicited their phagocytosis toward RBCs. […] Error bars are ±SEM. ***P<0.001 vs. freshly isolated splenic macrophages. FIG. 4D includes microscopic images of RBC phagocytosis by LPS- and IL-17-treated splenic macrophages. […] WT PEMs treated with LPS or IL-17 were further treated with Cd47^+ RBCs or Cd47-AP (10 min, 37° C.) followed by cell lysis, SIRPα immunoprecipitation, and WB detection of SIRPα phosphorylation (SIRPα^pY) and SHP-1 association. Data presented in each panel represent at least three independent experiments with n≥4, if applicable.
FIGS. 5A-5H include data related to our experiments on the role of Syk in phagocytic activation. […] PEMs were treated with LPS and cytokines in the presence of various inhibitors. After washing, inhibitor-free macrophages were tested for phagocytosis toward RBCs. […] PEMs treated with LPS and activating cytokines, or together with IL-10, were tested for total Syk and phosphorylated Syk (Syk^pY, specific at Y519/520). FIG. 5D describes PMA-induced macrophages phagocytosis toward RBCs. WT and SIRPα^−/− PEMs were treated with PMA (37° C., 30 min) before testing phagocytosis toward RBCs. FIG. 5E is a schematic depiction of PKC-Syk-mediated macrophage phagocytic activation toward self. […] Left: Inhibition of Syk by piceatannol and R406 prevented PMA-induced phagocytic activation. […] Error bars are ±SEM. ***P<0.001 vs. the respective controls. […] LPS-treated WT PEMs were further briefly treated with pervanadate before testing for phagocytosis toward RBCs. Error bars are ±SEM. ***P<0.001 vs. the respective controls. […]

[3] = system: cell surface LRP1 and CRT on PEMs; experiment: Macrophage cell surface CRT and LRP1 by FACS; conditions: after PMA treatment
Procedure: FIGS. 6A-6D include data related to our investigation of possible phagocytic receptors on macrophages for phagocytosing healthy self-cells. […] PEM (unstimulated) phagocytosis toward apoptotic B16 cells was tested in the presence of same antibodies and RAP as in A. Error bars are ±SEM. ***P<0.001 vs. phagocytosis in the presence of control IgG. […] PEMs, with or without (ctl.) treatment with LPS, IL-17, IL-6, or PMA, were labeled for cell surface LRP1 and CRT followed by FACS. Increased and decreased expressions were marked by arrows. […] Activated PEM phagocytosis toward RBCs was tested in the presence of antibodies against SR-A, Fc receptor Cd16/32 (10 μg/mL of each), inhibitors against SR-B (BLT1, 5 μM), dectin (laminarin, 100 μg/mL), complement (heparin, 40 U/mL), and antibody against Cd11b (10 μg/mL). Error bars are ±SEM. ***P<0.001 vs. the respective control without inhibition. Data presented in each panel represent at least three independent experiments with n≥4, if applicable.

PEMs [4] = experiment: Activated PEM phagocytosis toward RBCs in the presence of antibodies/inhibitors against phagocytic receptors; conditions: anti-CRT 10 μg/mL each; anti-LRP1 20 μg/mL; RAP 20 μg/mL
Procedure: (§2) FIGS. 6A-6D include data related to our investigation of possible phagocytic receptors on macrophages for phagocytosing healthy self-cells. […] PEMs, with or without (ctl.) treatment with LPS, IL-17, IL-6, or PMA, were labeled for cell surface LRP1 and CRT followed by FACS. […] Activated PEM phagocytosis toward RBCs was tested in the presence of antibodies against SR-A, Fc receptor Cd16/32 (10 μg/mL of each), inhibitors against SR-B (BLT1, 5 μM), dectin (laminarin, 100 μg/mL), complement (heparin, 40 U/mL), and antibody against Cd11b (10 μg/mL). […] Data presented in each panel represent at least three independent experiments with n≥4, if applicable.
as §1, with “To obtain peritoneal macrophages, peritonea of mice were lavaged by sterile PBS followed by centrifugation to collect cells. Cells suspended in DMEM with 10% FBS were then plated in cell culture dishes and incubated for 2 h at 37° C. followed by removal of non-adherent cells. To produce bone marrow-derived macrophages, freshly isolated bone marrow cells were culture in macrophage colony-stimulating factor (MCSF, ˜10 ng/ml)-containing MEM with 10% FBS for five-six days and macrophage differentiation was confirmed by anti-F4/80 staining.” left out

PEMs [5] = experiment: PEM (unstimulated) phagocytosis toward apoptotic B16 cells; conditions: same antibodies and RAP as for RBCs
Procedure: as §2
Ex vivo macrophage phagocytosis: Mouse spleens were harvested and minced in cold HBSS followed by passing through nylon meshes. […] The adherent cells, ˜70% being macrophages as determined by anti-F4/80 staining, were tested for phagocytosis. […] Macrophage phagocytosis of target cells was then analyzed by fluorescence microscopy and/or by FACS. […] Macrophage phagocytosis was then determined by FACS after labeling macrophages with anti-F4/80. […] Apoptosis was analyzed at 2, 4, 6, 8 and 18 h post UV irradiation by labeling of the cells with anti-phosphatidylserine (PS) antibody (data not shown) or FITC-conjugated annexin V (data not shown). […] After gentle washing, phagocytosis was analyzed by fluorescence microscopy and/or FACS. […]

LPS/cytokine-induced PEM phagocytosis toward RBCs (PEMs [4])	Molecule	time to elicitation of phagocytosis [1] [min]	phagocytic target discrimination ([1]; PMA-treated WT PEMs)	PEM phagocytosis toward RBCs ([1]; low nanomolar concentrations, 37° C., 30 min)	rescue of Syk inhibition-repressed PEM phagocytic activation by LPS (PEMs [2])	SIRPα expression, SIRPα ITIM phosphorylation and SHP-1 association (SIRPα)	reduction of CRT and LRP1 expression on PEMs [3] [%]	phagocytosis toward apoptotic cells (PEMs [5])
–	CCCCCCCCCCCCCC(=O)O[C@@H]1[C@@H](C)[C@@]2(O)[C@@H](C=C(CO)C[C@]3(O)C(=O)C(C)=C[C@@H]23)[C@@H]2C(C)(C)[C@]12OC(C)=O [PMA, phorbol 12-myristate 13-acetate]	< 30	aggressively phagocytosed both CD47^− and CD47^+ RBCs	instantly initiated PEM to phagocytose RBCs	failed to rescue	neither reduced SIRPα expression nor affected SIRPα ITIM phosphorylation and SHP-1 association	~50	–
failed to inhibit	RAP: LRP1 receptor-associated protein, which inhibits CRT-LRP1 binding	–	–	–	–	–	–	significantly inhibited
